Results from ChEMBL document CHEMBL2390905, “Recent development of potent analogues of oxazolidinone antibacterial agents” (Bioorg Med Chem, 2013).
Converted amounts (≈) assume the structure as drawn.

Tests used:
Staphylococcus aureus [1] = assay: Antibacterial activity against methicillin-resistant Staphylococcus aureus assessed as growth inhibition; type: functional
[2] = test system: Staphylococcus epidermidis; assay: Antibacterial activity against Staphylococcus epidermidis assessed as growth inhibition; type: functional
Enterococcus faecalis [3] = assay: Antibacterial activity against Enterococcus faecalis assessed as growth inhibition; type: functional
Staphylococcus aureus [4] = assay: Antibacterial activity against methicillin-sensitive Staphylococcus aureus ATCC 29213 assessed as growth inhibition after 16 to 20 hrs by broth microdilution method; type: functional
Staphylococcus aureus [5] = assay: Antibacterial activity against methicillin-resistant Staphylococcus aureus ATCC 33591 assessed as growth inhibition after 16 to 20 hrs by broth microdilution method; type: functional
Staphylococcus aureus [6] = assay: Antibacterial activity against linezolid-resistant Staphylococcus aureus PTCC 100 assessed as growth inhibition after 16 to 20 hrs by broth microdilution method; type: functional
Enterococcus faecium [7] = assay: Antibacterial activity against Enterococcus faecium ATCC 700221 assessed as growth inhibition after 16 to 20 hrs by broth microdilution method; type: functional
Enterococcus faecalis [8] = assay: Antibacterial activity against Enterococcus faecalis ATCC 29212 assessed as growth inhibition after 16 to 20 hrs by broth microdilution method; type: functional
[9] = target: T1, Amine oxidase [flavin-containing] A (Homo sapiens, UniProt P21397); assay: Inhibition of MAO-A (unknown origin) by luciferase […] assay
T1 sequence (P21397 whole entry): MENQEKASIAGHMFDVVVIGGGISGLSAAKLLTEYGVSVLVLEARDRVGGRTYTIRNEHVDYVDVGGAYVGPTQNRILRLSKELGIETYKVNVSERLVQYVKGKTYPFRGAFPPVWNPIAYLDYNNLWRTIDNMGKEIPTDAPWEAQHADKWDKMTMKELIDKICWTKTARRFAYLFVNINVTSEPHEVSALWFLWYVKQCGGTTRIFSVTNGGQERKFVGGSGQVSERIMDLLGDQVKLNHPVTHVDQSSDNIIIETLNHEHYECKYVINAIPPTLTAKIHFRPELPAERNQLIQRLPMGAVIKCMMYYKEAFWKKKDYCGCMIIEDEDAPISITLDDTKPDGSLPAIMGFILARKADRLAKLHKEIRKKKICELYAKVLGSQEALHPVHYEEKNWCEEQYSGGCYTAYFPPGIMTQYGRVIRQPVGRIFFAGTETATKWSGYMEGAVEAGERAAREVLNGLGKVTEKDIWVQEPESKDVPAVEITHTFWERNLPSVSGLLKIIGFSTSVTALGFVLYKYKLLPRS

Staphylococcus aureus [10] = assay: Ratio of tedizolid MIC to compound MIC for methicillin-resistant Staphylococcus aureus; type: functional
Enterococcus [11] = assay: Ratio of linezolid MIC to compound MIC for Enterococcus spp; type: functional
Haemophilus influenzae [12] = assay: Ratio of linezolid MIC to compound MIC for Haemophilus influenzae; type: functional
Enterococcus [13] = assay: Ratio of tedizolid MIC to compound MIC for Enterococcus spp; type: functional
Haemophilus influenzae [14] = assay: Ratio of tedizolid MIC to compound MIC for Haemophilus influenzae; type: functional
Streptococcus pneumoniae [15] = assay: Ratio of tedizolid MIC to compound MIC for Streptococcus pneumoniae; type: functional
Streptococcus pneumoniae [16] = assay: Ratio of linezolid MIC to compound MIC for Streptococcus pneumoniae; type: functional
Staphylococcus aureus [17] = assay: Ratio of linezolid MIC to compound MIC for methicillin-resistant Staphylococcus aureus; type: functional
Staphylococcus aureus [18] = assay: Ratio of linezolid MIC to compound MIC for multidrug-resistant Staphylococcus aureus; type: functional
Enterococcus faecium [19] = assay: Ratio of linezolid MIC to compound MIC for multidrug-resistant Enterococcus faecium; type: functional
[20] = test system: Staphylococcus epidermidis; assay: Ratio of linezolid MIC to compound MIC for multidrug-resistant Staphylococcus epidermidis; type: functional
Enterococcus faecalis [21] = assay: Ratio of linezolid MIC to compound MIC for multidrug-resistant Enterococcus faecalis; type: functional
Escherichia coli = assay: Ratio of linezolid MIC to compound MIC for Escherichia coli; type: functional
[22] = test system: Mycobacterium tuberculosis; assay: Ratio of mefloquine MIC to compound MIC for Mycobacterium tuberculosis H37Rv; type: functional

`CC(=O)NC[C@H]1CN(c2ccc(N3CCN(C(=O)CCl)CC3)c(F)c2)C(=O)O1` gave an MIC (Staphylococcus aureus [1]) of 1 µg/mL (≈ 2.42 µM), an MIC [2] of 1 µg/mL (≈ 2.42 µM) and an MIC (Enterococcus faecalis [3]) of 0.5 µg/mL (≈ 1.21 µM).

`CC(=O)NC[C@H]1CN(c2ccc(N3CCN(C(=O)C(Cl)Cl)CC3)c(F)c2)C(=O)O1` showed an MIC (Staphylococcus aureus [1]) of 1 µg/mL (≈ 2.24 µM), an MIC [2] of 1 µg/mL (≈ 2.24 µM) and an MIC (Enterococcus faecalis [3]) of 0.5 µg/mL (≈ 1.12 µM).

`O=C(/C=C/c1ccccc1)NC[C@H]1CN(c2cc(F)c(N3CCN(C(=O)CNC(=O)c4cn5cccnc5n4)CC3)c(F)c2)C(=O)O1` gave an MIC (Staphylococcus aureus [4]) of 0.125 µg/mL (≈ 0.194 µM), an MIC (Staphylococcus aureus [5]) of 0.125 µg/mL (≈ 0.194 µM) and an MIC (Staphylococcus aureus [6]) of 1 µg/mL (≈ 1.55 µM). For the same molecule, the MIC (Enterococcus faecium [7]) was 0.25 µg/mL (≈ 0.388 µM) and the MIC (Enterococcus faecalis [8]) was 0.125 µg/mL (≈ 0.194 µM).

With `CC(=O)NC[C@H]1CN(c2ccc(N3C=NN(C)CC3)c(F)c2)C(=O)O1` the Ki [9] was 4 µM.

`CN1CCN(c2ccc(N3C[C@H](COC(N)=S)OC3=O)cc2F)C=N1` was tested, and the Ki [9] was 4 µM.

For `O=C1O[C@@H](CO)CN1c1ccc(-c2ccc(N3CCOC3=O)nc2)c(F)c1`, the Ratio (Staphylococcus aureus [10]) was 2, the Ratio (Enterococcus [11]) was 8 and the Ratio (Haemophilus influenzae [12]) was 8. For the same molecule, the Ratio (Enterococcus [13]) was 2, the Ratio (Haemophilus influenzae [14]) was 2 and the Ratio (Streptococcus pneumoniae [15]) was 2. It also gave a Ratio (Streptococcus pneumoniae [16]) of 8 and a Ratio (Staphylococcus aureus [17]) of 8.

With `CC(=O)NC[C@H]1CN(c2ccc(-c3ccc(C(=O)NN)cc3)c(F)c2)C(=O)O1` the Ratio (Staphylococcus aureus [18]) was 2, the Ratio (Haemophilus influenzae [12]) was 2 and the Ratio (Enterococcus faecium [19]) was 2. It also gave a Ratio [20] of 2, a Ratio (Enterococcus faecalis [21]) of 2 and a Ratio (Escherichia coli) of 2.

Work on `CCOC(=O)c1cc(COc2cc(C(F)(F)F)nc3c(C(F)(F)F)cccc23)on1` yielded a Ratio [22] of 14.4.

In the case of `CC(=O)NC[C@H]1CN(c2ccc(N3CCOCC3)c(F)c2)C(=O)O1` [LINEZOLID], the Ki [9] is reported as 7.9 µM.

In the case of `Cn1nnc(-c2ccc(-c3ccc(N4C[C@H](CO)OC4=O)cc3F)cn2)n1` [TEDIZOLID], the Ki [9] is reported as < 2 µM.
